Patent US4174402A, “Method for the prophylaxis of SRS-A-induced symptoms” (priority 1978, dated 1979)
Several values for one entry are separate records, joined by “and”; a condition that tells them apart may be missing. Identical values can stand only once. Entries after “also recorded” stand apart in the source; their conditions may differ. Like-named read-outs stand apart in the source and are kept apart here.

Legend:
[1] = tested on: bradykinin; experiment: animal or person; settings: Cavia porcellus, iv, read-out: lowest dose that resulted in significant inhibition
Description: (§1) Antagonism of bradykinin-induced bronchoconstriction in guinea pigs was determined by measuring increases in resistance to artificial pulmonary inflation (Konzett-Rossler preparation). […] Due to large variations in bronchoconstricting responses among individual guinea pigs, each guinea pig serves as its own control and was challenged with bradykinin twice. The second response to bradykinin was expressed as percent of the first response to bradykinin. […] All guinea pigs having a first bradykinin response of less than 12 mm Hg were rejected as poor responders. […] In order to augment the bronchoconstrictor response, each guinea pig received 100 mcg propranolol/kg, iv, 5 minutes before the first injection of bradykinin (30 mcg/kg, iv). […] Five minutes after the injection of a test compound the guinea pigs received the second injection of bradykinin and the peak of the response determined. The effects of both test compounds were expressed as % inhibition of bradykinin-induced increase in bronchial resistance to forced inflation, as compared to the levels of bronchial resistance following iv administration of their respective solvent controls.

[2] = tested on: SRS-A; experiment: Test Procedure 3: SRS-A-induced increase in resistance to pulmonary inflation in anesthetized cats; format: in vivo, cat
Description: The trachea of each cat was cannulated, and the cats were artificially respired at 15 strokes/minute with a stroke volume of 22 ml/kg. A side-arm of the intratracheal cannula was connected to a Statham transducer, and the intratracheal pressure was recorded continuously on a polygraph. One femoral vein was cannulated in all cats receiving intravenous administration of drugs. In addition, most of the cats were cannulated through the femoral artery; this cannula was attached to another Statham transducer, and the blood pressure of these cats recorded. All cats received 1.0 mg/kg of propranolol and 0.2 mg/kg of thenyldiamine intravenously 3 minutes before iv injection of SRS-A. SRS-A was obtained from rat peritoneal cavities as described previously in Test Procedure 1. Each pool of rat ip fluid containing SRS-A was dose-ranged and a dose selected that was estimated to cause an average increase in intrapulmonary resistance to inflation in control cats by 4-6 mmHg. Test dose volumes ranged from 1.0 to 2.0 ml/kg, iv. […] Both test compounds and the sodium hydroxide vehicle were injected iv 5 minutes before the injections of SRS-A (2 minutes before the injection of propranolol and thenyldiamine).

[3] = tested on: SRS-A; experiment: Test Procedure 1: antagonism of SRS-A-induced bronchoconstriction in unanesthetized guinea pigs; format: in vivo, guinea pig
Description: The test compounds were administered orally to four guinea pigs/group 1 hour before the SRS-A challenge. The test compounds were prepared as suspensions in 1% gum tragacanth. Bronchoconstriction was graded 1+ to 3+ according to severity (1+ denoted restlessness and slight thoracic dyspnea, 2+ denoted moderate thoracic dyspnea and 3+ denoted convulsive dyspnea, regardless of whether the guinea pig died of asphyxiation or recovered).

[4] = tested on: SRS-A; experiment: Test Procedure 4: competitive antagonism to SRS-A in anesthetized guinea pigs; format: in vivo, guinea pig
From the text: The intratracheal pressure (ITP) of anesthetized, artificially respired guinea pigs (Konzett-Rossler preparation) was monitored and peak increases in ITP recorded. The basic methodology was the same as that described hereinabove for Test Procedure 2 except that the basic experimental unit was not two guinea pigs (medicated and control) but three guinea pigs examined in an uninterrupted sequence: a control guinea pig receiving the standard dose of SRS-A, a medicated guinea pig receiving the standard dose of SRS-A and a medicated guinea pig receiving a multiple dose of SRS-A. In this manner, the ratios of peak responses of the same sample of SRS-A could be determined for medicated/control guinea pigs (standard procedure), and for medicated guinea pigs receiving the standard dose of SRS-A. The multiple dose of SRS-A in these studies was either 3× or 6× the standard dose.

[5] = tested on: bradykinin
Description: as §1

[6] = tested on: serotonin; experiment: Test Procedure 6: serotonin-induced bronchoconstriction in anesthetized guinea pigs; format: in vivo, guinea pig
Description: Guinea pigs, weighing 275-340 g, were anesthetized and prepared for measurements of resistance to pulmonary inflation using a slightly modified Konzett-Rossler method (see Test Procedure 2). All guinea pigs received 0.1 mg/kg of propranolol iv and 5 minutes later, 50 mcg/kg of serotonin (creatinine complex) iv. Compound b or cyproheptadine were administered iv just before the injection of propranolol at 50 or 5 mg/kg, respectively. Compound b was prepared as a 5% solution in 5% N-methylglucamine and cyproheptadine as a 0.25% aqueous solution.

[7] = Oral toxicity, 5 weeks, Charles River CD albino rats; format: in vivo, rat
[8] = Oral toxicity, 5 weeks, rhesus monkeys; format: in vivo, rhesus monkey
Description: The oral toxicity of compound b at doses of 5.0, 32.0, 75.0 and 200 mg/kg/day for 5 weeks was studied in rhesus monkeys.

[9] = rat, in vivo, po, 640 mg/kg/day
[10] = rhesus monkey, in vivo, po, 200 mg/kg/day

Question: For COc1ccc2c(c1)c1c(n2C(=O)c2ccccc2)CCC(C(=O)O)C1 (centres unmarked) [Compound b, 9-benzoyl-6-methoxy-1,2,3,4-tetrahydrocarbazole-3-carboxylic acid], which minimal effective dose [1] is on record?
Answer: 1 mg/kg

Question: And the ED50 ([2]; Felis catus, 5 min, intravenous)?
Answer: 0.028 ± 0.024 mg/kg

Question: What about the “Max. Increase in Resistance to Pulm. Inflation, mm Hg ± S.E.” value ([2]; intravenous 0.01 mg/kg) of the same compound?
Answer: 4.1 ± 1.3 mm Hg

Question: And the “% Inhibition” value ([2]; intravenous 0.1 mg/kg)?
Answer: 73%

Question: What about the “Max. Increase in Resistance to Pulm. Inflation, mm Hg ± S.E.” value ([2]; intravenous 1.0 mg/kg) of the same compound?
Answer: 0.1 ± 0.1 mm Hg

Question: What about the “inhibition of SRS-A-induced increase in resistance to inflation” value ([2]; intravenous 1.0 mg/kg) of the same compound?
Answer: complete inhibition

Question: What about the “Incidence of Severe Bronchospasms, %” value ([3]; 0.4 mg/kg p.o.) of the same compound?
Answer: 75%

Question: What about the “Incidence of Severe Bronchospasms, No. Bronchosp./No. Tested” value (shortened to “Incidence … No. Bronchosp./No. Tested”) ([3]; 0.4 mg/kg p.o.) of the same compound?
Answer: 15/20

Question: What about the “Incidence of Severe Bronchospasms, %” value ([3]; 1.6 mg/kg p.o.) of the same compound?
Answer: 42%

Question: What about the “Incidence … No. Bronchosp./No. Tested” value ([3]; 1.6 mg/kg p.o.) of the same compound?
Answer: 8/19

Question: What about the “inhibition of severe SRS-A induced bronchospasm” value ([3]; 6.2 mg/kg oral) of the same compound?
Answer: completely inhibited

Question: And the “Incidence of Severe Bronchospasms, %” value ([3]; 6.2 mg/kg p.o.)?
Answer: 0%

Question: What about the “Incidence … No. Bronchosp./No. Tested” value ([3]; 6.2 mg/kg p.o.) of the same compound?
Answer: 0/19

Question: And the “Incidence of Severe Bronchospasms, %” value ([3]; 25 mg/kg p.o.)?
Answer: 4%

Question: And the “Incidence … No. Bronchosp./No. Tested” value ([3]; 25 mg/kg p.o.)?
Answer: 1/23

Question: What about the “Incidence of Severe Bronchospasms, %” value ([3]; 100 mg/kg p.o.) of the same compound?
Answer: 0%

Question: What about the “Incidence … No. Bronchosp./No. Tested” value ([3]; 100 mg/kg p.o.) of the same compound?
Answer: 0/20

Question: And the “Incidence of Severe Bronchospasms, %” value ([3]; 400 mg/kg p.o.)?
Answer: 0%

Question: And the “Incidence … No. Bronchosp./No. Tested” value ([3]; 400 mg/kg p.o.)?
Answer: 0/10

Question: And the ED50 ([3]; Cavia porcellus, po, 1 hour before SRS-A, read-out: AED50)?
Answer: 2.3 mg/kg

Question: What about the “Potency (Phenylbutazone = 1) (95% confidence limits)” value ([3]; p.o., 1 hour before SRS-A) of the same compound?
Answer: 4.0 (2.1-8.2)

Question: What about the “Ratio of peak responses, medicated (high dose SRS-A)/controls” value ([4]; 2.0 mg/kg iv, SRS-A lot B, 6x dose 12 ml/kg) of the same compound?
Answer: 2.14 ± .68 and 2.14

Question: What about the “Ratio of peak responses, medicated (low dose SRS-A)/controls” value ([4]; 2.0 mg/kg iv, SRS-A lot B, standard dose 2 ml/kg) of the same compound?
Answer: 0.14 ± 0.7 and 0.14

Question: What about the “% Inhibition” value ([4]; 2.0 mg/kg iv, six-fold SRS-A dose) of the same compound?
Answer: 0%

Question: What about the “% Inhibition” value ([4]; 2.0 mg/kg iv, standard dose of SRS-A) of the same compound?
Answer: 86%

Question: And the “Ratio of peak responses, medicated (high dose SRS-A)/controls” value ([4]; 3.3 mg/kg iv, SRS-A lot A, 3x dose 12 ml/kg)?
Answer: 0.76 ± .20 and 0.76

Question: And the “Ratio of peak responses, medicated (low dose SRS-A)/controls” value ([4]; 3.3 mg/kg iv, SRS-A lot A, standard dose 4 ml/kg)?
Answer: 0.12 ± 0.3 and 0.12

Question: And the “% Inhibition” value ([4]; 3.3 mg/kg iv, standard dose of SRS-A)?
Answer: 88%

Question: What about the “% Inhibition” value ([4]; 3.3 mg/kg iv, three-fold SRS-A dose) of the same compound?
Answer: 24%

Question: And the “mode of antagonism to SRS-A” value ([4]; iv)?
Answer: competitive antagonist to SRS-A

Question: What about the “effect against bradykinin-induced bronchoconstriction (activity profile)” value ([5]; guinea pigs) of the same compound?
Answer: effectiveness

Question: And the “inhibition of bradykinin-induced increases in bronchial resistance” value ([5]; iv)?
Answer: inhibited bradykinin-induced increases in bronchial resistance to inflation in a dose-related manner

Question: And the “% Inhibition” value ([5]; iv 0.33 mg/kg)?
Answer: 12%

Question: What about the “Average Increase In Bronchial Resistance (2nd Response in % of 1st Response ± S.E.)” value ([5]; iv 0.33 mg/kg) of the same compound?
Answer: 76 ± 13%

Question: And the “% Inhibition” value ([5]; iv 1.0 mg/kg)?
Answer: 48%

Question: What about the “Average Increase In Bronchial Resistance (2nd Response in % of 1st Response ± S.E.)” value ([5]; iv 1.0 mg/kg) of the same compound?
Answer: 45 ± 7%

Question: And the “% Inhibition” value ([5]; iv 3.3 mg/kg)?
Answer: 81%

Question: And the “Average Increase In Bronchial Resistance (2nd Response in % of 1st Response ± S.E.)” value ([5]; iv 3.3 mg/kg)?
Answer: 16 ± 3%

Question: And the “% Inhibition” value ([5]; iv 10.0 mg/kg)?
Answer: 84%

Question: And the “Average Increase In Bronchial Resistance (2nd Response in % of 1st Response ± S.E.)” value ([5]; iv 10.0 mg/kg)?
Answer: 14 ± 5%

Question: And the “% Inhibition” value ([5]; iv 33.0 mg/kg)?
Answer: 93%

Question: And the “Average Increase In Bronchial Resistance (2nd Response in % of 1st Response ± S.E.)” value ([5]; iv 33.0 mg/kg)?
Answer: 6 ± 4%

Question: What about the “inhibition of bradykinin-induced bronchoconstriction” value ([5]; iv 3.3, 10 and 33 mg/kg) of the same compound?
Answer: nearly complete inhibition

Question: And the “effect against serotonin-induced bronchoconstriction” value ([6]; guinea pigs)?
Answer: no inhibitory effect; also recorded: ineffectiveness

Question: What about the “Increase in Resistance (mm Hg)” value ([6]; iv 50 mg/kg, P insign.) of the same compound?
Answer: 45 ± 8 mm Hg

Question: And the Inhibition % ([6]; iv 50 mg/kg, P insign.)?
Answer: 4%

Question: And the mortality ([7]; oral 1280 mg/kg/day)?
Answer: all rats died within 18 days

Question: And the growth rate [7, 9]?
Answer: slightly depressed

Question: And the hematocrit [7, 9]?
Answer: minimally lower than controls

Question: And the hemoglobin concentration [7, 9]?
Answer: minimally lower than controls

Question: What about the “number of red blood cells” value [7, 9] of the same compound?
Answer: minimally lower than controls

Question: And the tolerability ([7]; rat, in vivo, po, 1280 mg/kg/day)?
Answer: not well tolerated

Question: And the mortality ([8]; oral 5.0, 32.0 and 75.0 mg/kg/day, 5 weeks)?
Answer: no mortality occurred

Question: What about the “gross or microscopic histopathologic changes” value ([8]; rhesus monkey, in vivo) of the same compound?
Answer: No gross or microscopic histophathologic changes were found

Question: What about the “deaths attributed to medication” value [8, 10] of the same compound?
Answer: two deaths attributed to medication occurred

Question: And the tolerability [8, 10]?
Answer: not well tolerated
